Source: patent US5449773A, “Platinum complexes of sucrose derivatives” (priority 1995, dated 1995)
“Also recorded” adds a separate entry of the source. Read-outs that look alike come from different tables or passages of the source.

Experiments:
human KB cell cultures [1] = system: human KB cell cultures
Method: (§1) The cytotoxicity of diaminosucrose platinum complexes was evaluated on human KB cell cultures as follows:
(§2) Graded doses of the respective diaminosucrose platinum (II) complexes tested contained in 0.1 ml of MEM medium were added to tube cultures of KB cells (contained in 1 ml of MEM medium with 4% fetal calf serum) immediately after seeding of ca. 2×10,000 cells/mi.
(§3) The incubated cultures were seeded every 3 days by 3 times dilution with the particular complex tested to maintain exponential cell growth.
(§4) After incubation the relative cytotoxic activity of the various platinum complexes was evaluated as follows:
(§5) Treated and untreated (control) tumor cell lines were viewed under the microscope and the number of dead cells quantified by visual means. Zero activity means that 100% of the treated cells survived, i.e., like the control.

E. coli = conditions: cited from earlier work
human KB cell cultures [2] = experiment: Cytotoxicity test of sucrose mono-, bis- and tris(platinum) complexes on human KB cell cultures (Example 11); type: cell-based; conditions: 10 μg/ml
Method: Cultures were seeded after 3 days by 3 times dilution with the platinum complex in order to maintain exponential growth.
The platinum complexes tested were cis-platin, a mono(platinum) complex of 6,6'-diamino-6,6'-dideoxy-1',2,3,3',4,4'-hexa-O-methylsucrose, a bis(platinum) complex of 6,6'-diamino-6,6'-dideoxy-1',2-anhydrosucrose and a tris(platinum) complex of 1',6,6' -triamino-1',6,6'-trideoxy-2,3,3',4,4'-penta-O-methylsucrose.

Lewis lung carcinoma [3] = experiment: Effect of dose of sucrose bis(platinum) complex on intraperitoneally implanted Lewis lung carcinoma in mice (Example 13); type: in vivo
Method: The effect of dosage of the sucrose bis(platinum) complex on intraperitoneally implanted Lewis lung carcinoma cells was evaluated in mice. […] Administration of the complex (in 0.1 ml of distilled water) was effected on day 2 and day 4 after implantation.

P388 leukemia [4] = experiment: Effect of dose of sucrose bis(platinum) complex on P388 leukemia in syngeneic DBA/2 mice (Example 14); type: in vivo; conditions: for Changes of body weight day 1 to 2 / Increase in life span / Mean survival time: day 1
Method: The effect of dose of sucrose bis(platinum complex on P388 leukemia cells in syngeneic DBA/2 mice was evaluated. A 0.1 ml of 10× dilution of P388 ascites (ca. 10^6 cells) was injected intraperitoneally (i.p.) into syngeneic DBA/2 mice (ca. 20 g body weight). The i.p. administration was effected on day 1 only. The bis(platinum) complex (1.0 mg/0.1 ml distilled water) had been stored for 77 days at 4° C. before administration.

P388 leukemia [5] = experiment: Effect of sucrose bis(platinum) complex on P388 leukemia in syngeneic DBA/2 mice (Example 15); type: in vivo
From the text: The effect of the sucrose bis(platinum) complex on P388 leukemia cells in syngeneic DBA/2 mice was further evaluated.

human KB cell cultures [6] = experiment: Cytotoxicity test on human KB cell cultures (Examples 8 and 9); conditions: cells continuously cultured with the complex
Method: as §1, §2, §3, §4, §5

Lewis lung carcinoma [7] = experiment: Effect on intraperitoneally implanted Lewis lung carcinoma in mice (Examples 10 and 12);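 also: C57BL/6 mice bearing Lewis lung tumor cells implanted intraperitoneally, treated intraperitoneally in distilled water starting day 1 after implantation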
Method: Young adult syngeneic C57BL/6 mice (ca. 17-19 grams) were implanted intraperitoneally with 3-5×10^5 Lewis Lung tumor cells. The respective diaminosucrose platinum (II) compounds were then administered intraperitoneally in distilled water commencing the first day after tumor implantation.
Lewis Lung tumor cells (3-5×10^5) were inoculated intraperitoneally (i.p.) into young adult syngeneic C57BL/6 mice (ca. 17-19g body weight). Administration of the platinum complexes (contained in 0.1 ml of distilled water) was started on day 1 after tumor implantation.

[8] = Solubility of sucrose platinum complexes; type: physicochemical; conditions: water, limits the dose
[9] = cells; cited from earlier work
[10] = 2 mg×2 i.p., listed as sucrose bis(platinum) complex
[11] = 0.5 mg/mouse i.p., day 1, 2, 3, 6

SMILES: COCC1(OC2OC(CN)C(OC)C(OC)C2OC)OC(CN)C(OC)C1OC.O=C1[O][Pt][O]C(=O)C12CC2 (stereo not drawn) [Sample No. 5, N,N'-(cis-[1,1-cyclopropanedicarboxylato-platinato)]-6,6'-diamino-6,6'-dideoxy-1',2,3,3',4,4'-hexa-O-methylsucrose]
- cytotoxicity (in words) (human KB cell cultures [1]): not very toxic

SMILES: NC1C(O)OC(CO)C(O)C1O.[NH2][Pt]([Cl])[Cl] (centres unmarked) [Sample No. 11, N-(amminedichloroplatinato)-2-aminoglucose]
- cytotoxicity (in words) (human KB cell cultures [1]): appears not to exhibit toxicity immediately but rather exhibits a delayed toxic response which occurs gradually during the incubation period

SMILES: NCCN.O=C1[O][Pt][O]C(=O)C12CC2 [Sample No. 9, cis-(ethylenediamino-N,N')-1,1-cyclopropanedicarboxylatoplatinum]
- cytotoxicity (in words) (human KB cell cultures [1]): more toxic than Sample No. 10 or Sample No. 6

SMILES: N.N.[Cl][Pt]([Cl])([Cl])[Cl] [cis-cis-trans-diaminetetrachloroplatinum (IV)]
- prevention of DNA replication (in words) (E. coli): have the ability to prevent DNA replication in E. coli

SMILES: N.N.NCC1OC2OC3(COC2C(O)C1O)OC(CN)C(O)C3O.[Cl][Pt][Cl].[Cl][Pt][Cl] (stereo not drawn) [Sample No. 6, N,N'-bis[cis-amminedichloroplatinato]-6,6'-diamino-6,6'-dideoxy-1',2-anhydrosucrose]
- Cytotoxicity (human KB cell cultures [2]; 11.2 nM, 14 days incubation): 3+ (66% of the treated cells appear to be dead)
- Changes of body weight day 1 to 7 (Lewis lung carcinoma [3]; 0.1 mg/mouse i.p., day 2, 4): +2.0 g
- Increase in life span (Lewis lung carcinoma [3]; 0.1 mg/mouse i.p., day 2, 4): > 135%
- Mean survival time (Lewis lung carcinoma [3]; 0.1 mg/mouse i.p., day 2, 4): > 48.8
- antitumor activity (in words) (Lewis lung carcinoma [3]; 0.1 mg×2 i.p.): significant antitumor activity
- tumor-free survival (in words) (Lewis lung carcinoma [3]; 0.1 mg×2 i.p., observation to day 50): Three mice survived healthy and tumor-free up to the end of the observation period (day 50)
- antitumor activity (in words) (P388 leukemia [4]; 0.1 mg i.p.): no antitumor activity
- Changes of body weight day 1 to 2 (P388 leukemia [4]; 0.1 mg/mouse i.p.): -0.2 g
- Increase in life span (P388 leukemia [4]; 0.1 mg/mouse i.p.): 16%
- Mean survival time (P388 leukemia [4]; 0.1 mg/mouse i.p.): > 8.8
- antitumor activity (in words) (P388 leukemia [4]; 2 mg / high doses, i.p., listed as sucrose bis(platinum) complex): significant antitumor activity; also recorded: definite antitumor activity
- Changes of body weight day 1 to 2 (P388 leukemia [4]; 2 mg/mouse i.p.): -1.5 g
- Increase in life span (P388 leukemia [4]; 2 mg/mouse i.p.): > 111%
- Mean survival time (P388 leukemia [4]; 2 mg/mouse i.p.): > 16.0
- activity against P388 leukemia compared with cisplatin (in words) (P388 leukemia [4]; high doses): comparable to that of cisplatin against P388 leukemia
- systemic toxicity (in words) (P388 leukemia [4]; high doses): still not toxic systemically
- Changes of body weight day 1 to 2 (P388 leukemia [5]; 1.0 mg/mouse i.p., day 1): -1.0 g
- Increase in life span (P388 leukemia [5]; 1.0 mg/mouse i.p., day 1): > 89%
- Mean survival time (P388 leukemia [5]; 1.0 mg/mouse i.p., day 1): > 16.6
- prolongation of survival time over the controls (P388 leukemia [5]; dose of 1.0): 84%
- antitumor activity / cure (in words) (P388 leukemia [5]; dose of 1.0, listed as sucrose bis(platinum) complex): significant antitumor activity; also recorded: one mouse appearing cured
- minimum cytotoxic concentration (human KB cell cultures [6]): 10 µg/mL
- Changes of body weight day 1 to 7 (Lewis lung carcinoma [7]; 2 mg/mouse i.p., day 1, 3): -3.0 g
- Increase in life span (Lewis lung carcinoma [7]; 2 mg/mouse i.p., day 1, 3): > 210%
- Mean survival days (Lewis lung carcinoma [7]; 2 mg/mouse i.p., day 1, 3): > 43.4 days
- No. of mice survival/total (Lewis lung carcinoma [7]; 2 mg/mouse i.p., day 1, 3): 3/5
- antitumor activity (in words) (Lewis lung carcinoma [7]; 2 mg×2 i.p.): substantial antitumor activity
- recovery, survival and tumor-free outcome (in words) (Lewis lung carcinoma [7]; 2 mg×2 i.p.): All of the mice treated, however, recovered the loss of body weight and were tumor-free by day 30
- toxicity to the host / body weight (in words) (Lewis lung carcinoma [7]; 2 mg×2 i.p.): significant reduction of body weight
- antitumor activity (in words) (Lewis lung carcinoma [7]; [10]): remarkable antitumor activity
- recovery, survival and tumor-free outcome (in words) (Lewis lung carcinoma [7]; [10]): All the mice treated gradually recovered from the toxicity; however, 2 mice died of tumor growth on days 32 and 35. Three mice survived healthy and tumor-free up to the end of the observation period (day 50)
- maximum tolerable dose (Lewis lung carcinoma [7]; i.p., per mouse, judged from body weight loss): ~2 mg×2

SMILES: N.N.[Cl][Pt][Cl] [transplatin, trans-diamine-dichloroplatinum (II)]
- prevention of DNA replication (in words) (E. coli): does not comprise this activity

SMILES: N.N.[Cl-].[Cl-].[OH-].[OH-].[Pt+4] [cis, cis-diamine-dichloro-trans-dihydroxoplatinum (IV)]
- prevention of DNA replication (in words) (E. coli): have the ability to prevent DNA replication in E. coli

SMILES: COCC1(OC2OC(CN)C(OC)C(OC)C2OC)OC(CN)C(OC)C1OC.[Cl][Pt][Cl] (stereo not drawn) [Sample No. 2, N-N'-(cis-dichloroplatinato)-6,6'-diamino-6,6'-dideoxy-1',2,3,3',4,4'-hexa-O-methylsucrose]
- minimum cytotoxic concentration (human KB cell cultures [6]): 125 µg/mL
- Changes of body weight day 1 to 7 (Lewis lung carcinoma [7]; 2 mg/mouse i.p., day 1, 3): +2.0 g
- Increase in life span (Lewis lung carcinoma [7]; 2 mg/mouse i.p., day 1, 3): -1%
- Mean survival days (Lewis lung carcinoma [7]; 2 mg/mouse i.p., day 1, 3): 13.8 days
- No. of mice survival/total (Lewis lung carcinoma [7]; 2 mg/mouse i.p., day 1, 3): 0/5
- antitumor activity (in words) (Lewis lung carcinoma [7]; 2 mg×2 i.p.): no antitumor activity
- toxicity to the host / body weight (in words) (Lewis lung carcinoma [7]; 2 mg×2 i.p., listed as sucrose mono(platinum) complex): no antitumor activity nor toxicity to the host

SMILES: COC1C(CN)OC(OC2(CN)OC(CN)C(OC)C2OC)C(OC)C1OC.[NH2][Pt]([Cl])[Cl].[NH2][Pt]([Cl])[Cl].[NH2][Pt]([Cl])[Cl] (stereo not drawn) [Sample No. 7, N,N',N"-tris[cis-amminedichloroplatinato]-1'6,6'-triamino-1',6,6'-trideoxy-2,3,3',4,4'-penta-O-methylsucrose]
- Cytotoxicity (human KB cell cultures [2]; 7.9 nM, 10 days incubation): 3+ (66% of the treated cells appear to be dead)
- aqueous solubility (in words) [8]: Larger dosages were not possible because of the solubility constraints
- aqueous solubility (in words) ([8]; listed as sucrose tris(platinum) complex): limited solubility
- minimum cytotoxic concentration (human KB cell cultures [6]): 10 µg/mL
- Changes of body weight day 1 to 7 (Lewis lung carcinoma [7]; [11]): -0.8 g
- Increase in life span (Lewis lung carcinoma [7]; [11]): > 255%
- Mean survival days (Lewis lung carcinoma [7]; [11]): > 39.8 days
- No. of mice survival/total (Lewis lung carcinoma [7]; [11]): 3/5
- antitumor activity (in words) (Lewis lung carcinoma [7]; 0.5 mg×4 i.p.): remarkable antitumor activity
- reduction of body weight (in words) (Lewis lung carcinoma [7]; 0.5 mg×4 i.p.): moderate reduction of body weight
- survival and tumor-free outcome (in words) (Lewis lung carcinoma [7]; 0.5 mg×4 i.p., observation to day 50): Two mice died of tumor growth on day 22 and day 27. Three mice survived tumor-free until the end of the observation period (day 50)
- reduction of body weight (in words) (Lewis lung carcinoma [7]; 0.5 mg×4 i.p., listed as sucrose tris(platinum) complex): moderate .reduction in body weight

SMILES: N.N.[Cl][Pt][Cl] [Sample No. 1, Cis-dichlorodiamine platinum]
- saturability and inhibition of accumulation (in words) [9]: accumulation is not saturable up to 3 mM cisplatin and cannot be inhibited with structural analogs
- prevention of DNA replication (in words) (E. coli; listed as cisplatin): have the ability to prevent DNA replication in E. coli
